ChEMBL document CHEMBL5360534, “Synthetic α-glucosidase inhibitors as promising anti-diabetic agents: Recent developments and future challenges” (Eur J Med Chem, 2023)

Key:
[1] = Inhibition of alpha-glucosidase (unknown origin) assessed as reduction in starch digestion preincubated with alpha-amylase for 20 mins followed by alpha-glucosidase addition and measured after 30 mins by absorbance based analysis; set-up: species or system Homo sapiens
[2] = Inhibition of alpha-glucosidase (unknown origin) using p-nitrophenyl-alpha-D-glucopyranoside as substrate preincubated for 15 mins followed by substrate addition and measured after 30 mins by spectrophotometric analysis; set-up: species or system Homo sapiens
Alpha-glucosidase [3] = target: T1, Alpha-glucosidase (Saccharomyces cerevisiae S288c, UniProt P53341+P38158+P07265); experiment: Inhibition of Saccharomyces cerevisiae alpha-glucosidase using p-nitrophenyl-alpha-D-glucopyranoside as substrate preincubated for 10 mins followed by substrate addition and measured after 30 mins by absorbance based microplate reader analysis; assay type: protein assay
[4] = Inhibition of alpha-glucosidase (unknown origin) using p-nitrophenyl-alpha-D-glucopyranoside as substrate preincubated for 15 mins followed by substrate addition and measured after 30 mins by multiplate spectrophotometric analysis; set-up: species or system Homo sapiens
[5] = Inhibition of alpha-glucosidase (unknown origin) using pNPG as substrate preincubated for 20 mins followed by substrate addition and measured after 1 hr by absorbance based analysis; set-up: species or system Homo sapiens
Alpha-glucosidase [6] = target: T1, Alpha-glucosidase; experiment: Inhibition of Saccharomyces cerevisiae alpha-glucosidase; assay type: protein assay
Alpha-glucosidase [7] = target: T1, Alpha-glucosidase; experiment: Competitive inhibition of Saccharomyces cerevisiae alpha-glucosidase assessed as inhibition constant; assay type: protein assay
[8] = target: Alpha-glucosidase (Saccharomyces cerevisiae S288c) (UniProt P53341+P38158+P07265); experiment: Potency index, ratio of acarbose IC50 to test compound IC50 for inhibition of Saccharomyces cerevisiae alpha-glucosidase; assay type: protein assay
Alpha-glucosidase [9] = target: T1, Alpha-glucosidase; experiment: Inhibition of Saccharomyces cerevisiae alpha-glucosidase using p-nitrophenyl-alpha-D-glucopyranoside as substrate preincubated for 15 mins followed by substrate addition and measured after 20 mins by spectrophotometric analysis; assay type: protein assay
Alpha-glucosidase [10] = target: T1, Alpha-glucosidase; experiment: Inhibition of Saccharomyces cerevisiae alpha-glucosidase using pNPG as substrate by spectrophotometric analysis; assay type: protein assay
Alpha-glucosidase [11] = target: T1, Alpha-glucosidase; experiment: Inhibition of Saccharomyces cerevisiae alpha-glucosidase using p-nitrophenyl-alpha-D-glucopyranoside as substrate preincubated for 5 mins followed by substrate addition and measured after 5 mins by absorbance based analysis; assay type: protein assay
[12] = Inhibition of alpha-glucosidase (unknown origin) using p-nitrophenylglucopyranoside as substrate preincubated for 10 mins followed by substrate addition and measured by absorbance based analysis; set-up: species or system Homo sapiens
Homo sapiens = species: Homo sapiens; experiment: Inhibition of alpha-glucosidase (unknown origin) using p-nitrophenylglucopyranoside as substrate at 100 microg/ml preincubated for 10 mins followed by substrate addition and measured by absorbance based analysis relative to control; details: dose 100.0 µg/ml
[13] = Inhibition of alpha-glucosidase (unknown origin) using p-nitrophenyl glucopyranoside as substrate preincubated for 10 mins followed by substrate addition and measured after 20 mins by spectrophotometric analysis; set-up: species or system Homo sapiens
[14] = Inhibition of Saccharomyces cerevisiae alpha-glucosidase type I using p-nitrophenyl-alpha-D-glucopyranoside as substrate preincubated for 10 mins followed by substrate addition and measured after 20 mins by spectrophotometric analysis
[15] = Inhibition of alpha-glucosidase (unknown origin) using p-nitrophenyl-alpha-D-glucopyranoside as substrate preincubated for 15 mins followed by substrate addition and measured after 30 mins by absorbance based analysis; set-up: species or system Homo sapiens
Alpha-glucosidase [16] = target: T1, Alpha-glucosidase; experiment: Inhibition of Saccharomyces cerevisiae alpha-glucosidase using p-nitrophenyl-alpha-D-glucopyranoside as substrate incubated for 30 mins by spectrophotometric analysis; assay type: protein assay
Alpha-glucosidase [17] = target: T1, Alpha-glucosidase; experiment: Inhibition of Saccharomyces cerevisiae alpha-glucosidase using p-nitrophenyl glucopyranoside as substrate preincubated for 10 mins followed by substrate addition and measured after 20 mins by spectrophotometric analysis; assay type: protein assay
Alpha-glucosidase [18] = target: T1, Alpha-glucosidase; experiment: Competitive inhibition of Saccharomyces cerevisiae alpha-glucosidase using pNPG as substrate assessed as inhibition constant preincubated for 10 mins followed by substrate addition and measured after 20 mins by spectrophotometric analysis; assay type: protein assay
[19] = Inhibition of alpha-glucosidase (unknown origin) using pNPG as substrate preincubated for 15 mins followed by substrate addition and measured after 30 mins by microplate reader based analysis; set-up: species or system Homo sapiens
[20] = Inhibition of alpha-glucosidase (unknown origin) using p-nitrophenyl-alpha-D-glucopyranoside as substrate preincubated for 15 mins followed by substrate addition and measured after 15 mins by absorbance based microplate reader analysis; set-up: species or system Homo sapiens
Alpha-glucosidase [21] = target: T1, Alpha-glucosidase; experiment: Inhibition of Saccharomyces cerevisiae alpha-glucosidase by absorbance based microplate reader analysis; assay type: protein assay
[22] = Inhibition of alpha-glucosidase (unknown origin) using p-nitrophenyl glucopyranoside as substrate preincubated for 10 mins followed by substrate addition and measured after 30 mins by absorbance based analysis; set-up: species or system Homo sapiens
[23] = Inhibition of alpha-glucosidase (unknown origin) using p-nitrophenylglucopyranoside as substrate preincubated for 10 mins followed by substrate addition and measured after 30 mins by absorbance based microplate reader analysis; set-up: species or system Homo sapiens
Alpha-glucosidase [24] = target: T1, Alpha-glucosidase; experiment: Inhibition of Saccharomyces cerevisiae alpha-glucosidase using pNPG as substrate preincubated for 10 mins followed by substrate addition and measured after 20 mins by spectrophotometric analysis; assay type: protein assay

With `C=c1[nH]c(=O)s/c1=C/c1ccc(Oc2nc3ccccc3n2Cc2ccc(Cl)cc2)cc1` as the compound, how does the IC50 [1] read?
The IC50 was 0.54 µM.

Which IC50 [2] does the source give for `COc1ccc(-c2cn(C[C@@H](C)Oc3ccc(-c4ccc(C(F)(F)F)cc4)cc3OC)nn2)cc1` here?
The IC50 was 14.2 µM.

For `Cc1ccc(NC(=O)C(C)Sc2nnc(-c3ccc(Cl)cc3)o2)cc1C` (stereo not drawn), which IC50 (Alpha-glucosidase [3]) is on record?
Its IC50 is 52.63 µM.

With `CCCCCCSc1nc2ccccc2n1CC(=O)NN1C(=O)CSC1c1ccc([N+](=O)[O-])cc1` (stereo not drawn) as the compound, how does the IC50 [4] read?
The IC50 was 5.22 µM.

For `Cc1ccc(S(=O)(=O)n2cc(-c3oc4cc(Br)cc(Br)c4c(=O)c3O)c3ccccc32)cc1`, which IC50 [5] is on record?
Its IC50 is 70.6 µM.

For `Cc1ccc2c(c1)/C(=N/Nc1nc(-c3ccc(O)cc3)cs1)C(=O)N2Cc1cccc(F)c1`, which IC50 [2] is on record?
The IC50 was 5.36 µM.

Which IC50 (Alpha-glucosidase [6]) does the source give for `O=C(COc1ccc(C(c2c(O)c3ccccc3oc2=O)c2c(O)c3ccccc3oc2=O)cc1)Nc1ccc(Br)cc1` here?
The IC50 was 41.73 µM.

What about the Ki (Alpha-glucosidase [7]) of the same compound?
The Ki was 44 µM.

What about the Ratio IC50 [8] of the same compound?
The Ratio IC50 was 18.

Which IC50 (Alpha-glucosidase [9]) does the source give for `Oc1ccc(-c2nc3cc(N4CCOCC4)ccc3[nH]2)cc1` here?
The IC50 was 3.4 µM.

For `O=C(/C=C\c1ccc(OCc2cn(Cc3ccc(O)cc3)nn2)cc1)NCCc1c[nH]c2ccccc12`, which IC50 (Alpha-glucosidase [6]) is on record?
Its IC50 is 65 µM.

What about the Ki (Alpha-glucosidase [7]) of the same compound?
Its Ki is 64 µM.

Which IC50 (Alpha-glucosidase [10]) does the source give for `CCn1cc(C(=O)CC(c2ccc3ccccc3c2)C2C(=O)N(C)C(=O)N(C)C2=O)c2ccccc21` (stereo not drawn) here?
Its IC50 is 13.02 µM.

Which IC50 (Alpha-glucosidase [11]) does the source give for `O=C(N/N=C/c1ccc(O)c(O)c1)c1cc2ccccc2oc1=O` here?
Its IC50 is 1.1 µM.

What does the source list for `Nc1ccccc1-c1nn(CNN2CCOCC2)c(=S)o1`?
IC50 [12]: 53.6 µM; inhibition (Homo sapiens): 85%

With `Oc1ccc(-c2nc3ncccc3[nH]2)cc1O` as the compound, how does the IC50 (Alpha-glucosidase [11]) read?
The IC50 was 13.5 µM.

With `CN1CCN(c2ccc3[nH]c(-c4ccc(O)cc4)nc3c2)CC1` as the compound, how does the IC50 (Alpha-glucosidase [9]) read?
The IC50 was 2.25 µM.

For `COc1cc(-c2nc3ccccc3[nH]2)ccc1OCc1cn(CC(=O)Nc2cnc(-c3ccccc3)s2)nn1`, which IC50 [13] is on record?
The IC50 was 6.31 µM.

Which IC50 [14] does the source give for `O=[N+]([O-])c1ccc(-c2nn(-c3ccccc3)cc2-c2nc(-c3ccccc3)c(-c3ccccc3)n2-c2ccc(Br)cc2)cc1` here?
The IC50 was 33.6 µM.

Which IC50 [15] does the source give for `O=C1Nc2cc(Br)ccc2/C1=N/Nc1nc(-c2ccc(Br)cc2)cs1` here?
Its IC50 is 20.8 µM.

With `O=C1NC(=S)S/C1=C\c1ccc(Nc2nc3ccccc3o2)cc1` as the compound, how does the IC50 [1] read?
Its IC50 is 9.48 µM.

For `O=C(CCCSc1nc2ccccc2s1)Nc1cccc2ccccc12`, which IC50 (Alpha-glucosidase [16]) is on record?
Its IC50 is 11 µM.

With `CCCCCCSc1nc2ccccc2n1CC(=O)NN1C(=O)CSC1c1ccc(C=O)cc1` (stereo not drawn) as the compound, how does the IC50 [4] read?
The IC50 was 5.69 µM.

Which IC50 (Alpha-glucosidase [3]) does the source give for `Cc1cc2nc(-c3ccc(C(=O)NNC(=S)Nc4ccc([N+](=O)[O-])cc4)cc3)[nH]c2cc1C` here?
The IC50 was 35.83 µM.

Which IC50 (Alpha-glucosidase [17]) does the source give for `CCOC(=O)c1c(SCc2cn(Cc3cccc([N+](=O)[O-])c3)nn2)nnc(-c2ccccc2)c1-c1ccccc1` here?
Its IC50 is 85.6 µM.

What about the Ki (Alpha-glucosidase [18]) of the same compound?
The Ki was 82 µM.

With `O=C1Nc2ccc(Cl)cc2/C1=C\c1ccc(-c2nnc(-c3cc(O)cc(O)c3)o2)cc1` as the compound, how does the IC50 [19] read?
Its IC50 is 1.25 µM.

Which IC50 [19] does the source give for `Oc1ccc(/C=N\c2nnc(-c3ccc(O)cc3)o2)cc1` here?
The IC50 was 0.3 µM.

Which IC50 [14] does the source give for `Clc1ccc(-n2c(-c3cn(-c4ccccc4)nc3-c3ccc(Br)cc3)nc(-c3ccccc3)c2-c2ccccc2)cc1` here?
Its IC50 is 25.2 µM.

For `COc1cc2c(=O)c(-c3ccccc3)coc2cc1O/C(=C\N(C)C)C(=O)c1ccc(Cl)cc1`, which IC50 [20] is on record?
Its IC50 is 890 µM.

With `CCCCCCSc1nc2ccccc2n1CC(=O)NN1C(=O)CSC1c1ccc(O)c(OC)c1` (stereo not drawn) as the compound, how does the IC50 [4] read?
The IC50 was 10.2 µM.

Which results are given for `Oc1ccccc1-c1nn(CNN2CCOCC2)c(=S)o1`?
IC50 [12]: 43.1 µM; inhibition (Homo sapiens): 82%

Which IC50 (Alpha-glucosidase [21]) does the source give for `COc1ccc(/N=C2/NC(=O)/C(=C/c3cn(-c4ccccc4)nc3-c3ccc([N+](=O)[O-])cc3)S2)cc1` here?
The IC50 was 4.48 µM.

With `COc1cc2oc(=O)ccc2cc1-c1c(O)cc(O)c2c1O/C(=C\c1ccccc1)C2=O` as the compound, how does the IC50 (Alpha-glucosidase [16]) read?
The IC50 was 3.55 µM.

With `FC(F)(F)c1cccc(-c2nnc(-c3c[nH]c4ncccc34)o2)c1` as the compound, how does the IC50 [22] read?
Its IC50 is 0.46 µM.

With `CC(=O)Nc1ccc(-c2[nH]c3ccc(F)cc3c2-c2nc(-c3ccccc3)c(-c3ccccc3)n2-c2ccccc2)cc1` as the compound, how does the IC50 [23] read?
Its IC50 is 8.37 µM.

For `O=c1c2ccccc2nc(SCc2cn(Cc3ccc(Br)cc3)nn2)n1CCc1ccccc1`, which IC50 (Alpha-glucosidase [10]) is on record?
Its IC50 is 181 µM.

What about the IC50 (Alpha-glucosidase [17]) of the same compound?
The IC50 was 181 µM.

For `COc1ccc(/N=C2/NC(=O)/C(=C/c3cn(-c4ccccc4)nc3-c3ccc(OC)cc3)S2)cc1`, which IC50 (Alpha-glucosidase [21]) is on record?
The IC50 was 9.9 µM.

With `Clc1ccc(C2=NOC(c3ccccc3)N2c2ccc(Cl)cc2)cc1` (stereo not drawn) as the compound, how does the IC50 (Alpha-glucosidase [24]) read?
Its IC50 is 215 µM.

And the Ki (Alpha-glucosidase [18])?
Its Ki is 122 µM.
